Measurements from patent US20130029981A1, “COMPOUNDS, COMPOSITIONS, AND METHODS FOR CONTROLLING BIOFILMS” (Katholieke Universiteit Leuven, priority 2009, published 2013).
Where two headings read alike, the source gives them in different places.

How the values were obtained:
[1] = tested on: S. Typhimurium ATCC14028; test: Static peg assay for prevention of biofilm formation (Calgary device, crystal violet); format: cell-based, Salmonella Typhimurium; details: 25° C.
Protocol: (§1) Evaluation of the biofilm inhibitory activity of some substituted 2-amino-1H-imidazoles of the invention was carried out by growing up biofilms of S. Typhimurium ATCC14028 or SL1344 or Pseudomonas aeruginosa PA14 in the presence of different concentrations (1/2 dilution series) of biofilm inhibitors, by using the Calgary biofilm device. After an incubation period of 24 hours at 25° C. or 37° C. or 48 hours at 16° C. the biofilms were visualized by crystal violet staining. In the next step the stain was extracted from the biofilm with 30% acetic acid. The absorbance of the resolubilized stain at 570 nm is a measure of the amount of biofilm formed.
In examples 2 and 3, the following materials and methods were used.
The device used for biofilm formation is a platform carrying 96 polystyrene pegs (Nunc no. 445497) that fits as a microtiter plate lid with a peg hanging into each microtiter plate well (Nunc no. 269789). Biofilm formation assays were carried out at 16° C., 25° C. and 37° C.
For biofilm assays at 16° C. and 25° C., two-fold serial dilutions of the compounds in 100 μl liquid TSB 1/20 broth per well were prepared in the microtiter plate. Subsequently, an overnight culture of S. Typhimurium ATCC14028 or SL1344 (grown up in LB medium) was diluted 1:100 into TSB 1/20 broth and 100 μl (ca. 10^6 cells) was added to each well of the microtiter plates, resulting in a total amount of 200 μl medium per well. The pegged lid was placed on the microtiter plate and the plate was incubated for 48 hours at 16° C. or for 24 hours at 25° C. without shaking. During this incubation period biofilms were formed on the surface of the pegs. In case of the assay at 16° C., after 24 hours the lid was transferred into a new plate with medium and the specific molecules used for testing. […] For quantification of biofilm formation, the pegs were washed once in 200 μl phosphate buffered saline (PBS). The remaining attached bacteria were stained for 30 minutes with 200 μl 0.1% (w/v) crystal violet in an isopropanol/methanol/PBS solution (v/v 1:1:18). Excess stain was rinsed off by placing the pegs in a 96-well plate filled with 200 μl distilled water per well. After the pegs were air dried (30 min), the dye bound to the adherent cells was extracted with 30% glacial acetic acid (200 μl). The OD570 of each well was measured using the VERSAmax microtiter plate reader. The IC50 value for each compound was determined from concentration gradients in two or three independent experiments (with 2 or 3 repeats per experiment), by using the GraphPad software of Prism.
For biofilm assays at 37° C., two-fold serial dilutions of the compounds in 50 μl liquid CFA broth per well were prepared in the microtiter plate. Subsequently, an overnight culture of S. Typhimurium ATCC 14028 was diluted 1:100 into CFA broth and 100 μl (ca. 10^6 cells) was added to each well of the microtiter plates, resulting in a total amount of 150 μl medium per well. The pegged lid was placed on the microtiter plate and the plate was incubated for 24 hours at 37° C. without shaking. During incubation the plates were placed in a humidity controlled container to prevent evaporation of the growth medium. Quantification of biofilm formation was performed similarly as described above for the assays at 16° C. and 25° C.
as §1, with “imidazo[1,2-a]pyrimidinium bromide salts” for “2-amino-1H-imidazoles”

[2] = tested on: Pseudomonas aeruginosa PA14; test: as above; format: cell-based; details: 25° C.
Protocol: as §1
The device used for Pseudomonas aeruginosa biofilm formation is the same platform carrying polystyrene pegs as described above for Salmonella Typhimurium.
Two-fold serial dilutions of the compounds in 100 μl liquid broth per well were prepared in the microtiter plate. Subsequently, an overnight culture of P. aeruginosa PA14 (grown up in TSB medium) was diluted 1:100 into liquid broth and 100 μl was added to each well of the microtiter plates, resulting in a total amount of 200 μl medium per well. The pegged lid was placed on the microtiter plate and the plate was incubated for 24 hours at 25° C., 30° C. or 37° C. without shaking. During this incubation period biofilms were formed on the surface of the pegs. The liquid broth used for the tests at 25° C. was TSB 1/20. The tests at 37° C. were performed in CFA and/or LBNS broth. During incubation at 30° C. and 37° C. the plates were placed in a humidity controlled container to prevent evaporation of the growth medium. Quantification of biofilm formation was performed similarly as described previously for the S. Typhimurium biofilm assays.
as §1, with “imidazo[1,2-a]pyrimidinium bromide salts” for “2-amino-1H-imidazoles”
as §1, with “substituted imidazo[1,2-a]-pyrimidinium bromide and perchlorate salts produced according to examples 3 and 5” for “substituted 2-amino-1H-imidazoles of the invention”, “C.” for “C. or 37° C. or 48 hours at 16° C.”, “nm was taken as” for “nm is”

[3] = Table 16, read-out: S. Typhimurium IC50 (biofilm formation)
[4] = Table 16, read-out: P. aeruginosa IC50 (biofilm formation)
[5] = 24 hours, Table 15, read-out: (1) IC50 (biofilm inhibition)
[6] = 24 hours, Table 15, read-out: (2) IC50 (biofilm inhibition)
[7] = strain not given, read-out: IC(50), preventive activity against S. typhimurium biofilms

| SMILES | IC50 [1, 3] | IC50 [2, 4] | IC50 [1, 5] | IC50 [2, 6] | IC50 [1, 7] |
| --- | --- | --- | --- | --- | --- |
| CN1c2nccc[n+]2CC1(O)c1ccccc1 (racemic) [Compound 1] | > 800 µM | 212 µM |  |  |  |
| CC(C)N1c2nccc[n+]2CC1(O)c1ccccc1 (racemic) [Compound 2] | 540 µM | > 400 µM |  |  |  |
| CCCCN1c2nccc[n+]2CC1(O)c1ccccc1 (racemic) [Compound 3] | 410 µM | > 400 µM |  |  |  |
| CC(C)CN1c2nccc[n+]2CC1(O)c1ccccc1 (racemic) [Compound 4] | 131 µM | 289 µM |  |  |  |
| CCCCCN1c2nccc[n+]2CC1(O)c1ccccc1 (racemic) [Compound 5] | 278 µM | 565 µM |  |  |  |
| CCCCCCN1c2nccc[n+]2CC1(O)c1ccccc1 (racemic) [Compound 6] | 102 µM | 406 µM | 102 µM | 3.13 µM |  |
| CCCCCCCN1c2nccc[n+]2CC1(O)c1ccccc1 (racemic) [Compound 7] | 23.4 µM | 24.8 µM | 23.4 µM | 5.89 µM |  |
| CCCCCCCCN1c2nccc[n+]2CC1(O)c1ccccc1 (racemic) [Compound 8] | 9.8 µM | 18.9 µM | 9.77 µM | 11.2 µM |  |
| CCCCCCCCCN1c2nccc[n+]2CC1(O)c1ccccc1 (racemic) [Compound 9] | 8.3 µM | 55.7 µM | 8.26 µM | 4.85 µM |  |
| CCCCCCCCCCN1c2nccc[n+]2CC1(O)c1ccccc1 (racemic) [Compound 10] | 15 µM | 47 µM | 15 µM | 3.95 µM |  |
| CCCCCCCCCCCN1c2nccc[n+]2CC1(O)c1ccccc1 (racemic) [Compound 11] | 24.6 µM | > 800 µM | 24.6 µM | 28.6 µM |  |
| CCCCCCCCCCCCN1c2nccc[n+]2CC1(O)c1ccccc1 (racemic) [Compound 12] | 27.5 µM | > 800 µM | 27.5 µM | 9.63 µM |  |
| CCCCCCCCCCCCCN1c2nccc[n+]2CC1(O)c1ccccc1 (racemic) [Compound 13] | 81.6 µM | > 800 µM | 81.6 µM | 17 µM |  |
| CCCCCCCCCCCCCCN1c2nccc[n+]2CC1(O)c1ccccc1 (racemic) [Compound 14] | 180 µM | > 800 µM | 180 µM |  |  |
| CCCCN1c2nccc[n+]2CC1(O)c1ccc(Cl)cc1 (racemic) [Compound 16] | 29.7 µM | 24.9 µM |  |  |  |
| CC(C)CN1c2nccc[n+]2CC1(O)c1ccc(Cl)cc1 (racemic) [Compound 17] | 31.4 µM | 83.4 µM |  |  |  |
| CCCCCN1c2nccc[n+]2CC1(O)c1ccc(Cl)cc1 (racemic) [Compound 18] | 32.6 µM | 164 µM |  |  |  |
| CCCCCCN1c2nccc[n+]2CC1(O)c1ccc(Cl)cc1 (racemic) [Compound 19] | 13.7 µM | 79.8 µM | 13.7 µM | 20.2 µM |  |
| CC(C)(C)c1ccc(-c2cn(CCCNc3ncc(-c4ccc(Cl)c(Cl)c4)[nH]3)nn2)cc1 [R3=3,4-diClPh; R4=H; R9=p(t-Bu)Ph; n=3] |  |  |  |  | 17.8 µM |
| COc1ccc(-c2cn(CCNc3ncc(-c4ccc(Cl)c(Cl)c4)[nH]3)nn2)cc1 [R3=3,4-diClPh; R4=H; R9=p-MeOPh; n=2] |  |  |  |  | > 800 µM |

| SMILES | IC50 [1, 3] | IC50 [2, 4] | IC50 [1, 5] | IC50 [2, 6] | IC50 [1, 7] |
| --- | --- | --- | --- | --- | --- |
| CCCc1cn(CCNc2ncc(-c3ccc(Cl)c(Cl)c3)[nH]2)nn1 [R3=3,4-diClPh; R4=H; R9=propyl; n=2] |  |  |  |  | 35.6 µM |
| CCCc1cn(CCCNc2ncc(-c3ccc(Cl)c(Cl)c3)[nH]2)nn1 [R3=3,4-diClPh; R4=H; R9=propyl; n=3] |  |  |  |  | 31.8 µM |
| Clc1ccc(-c2cnc(NCCCn3cc(-c4ccsc4)nn3)[nH]2)cc1Cl [R3=3,4-diClPh; R4=H; R9=thiofuran; n=3] |  |  |  |  | 2 µM |
| CC(C)(N)c1cn(CCCNc2ncc(-c3ccc(Br)cc3)[nH]2)nn1 [R3=4-BrPh; R4=H; R9=C(CH3)2(NH2); n=3] |  |  |  |  | 30.9 µM |
| Brc1ccc(-c2cnc(NCCn3cc(C4CCCCC4)nn3)[nH]2)cc1 [R3=4-BrPh; R4=H; R9=c-hexyl; n=2] |  |  |  |  | 8.4 µM |
| Brc1ccc(-c2cnc(NCCn3cc(C4CC4)nn3)[nH]2)cc1 [R3=4-BrPh; R4=H; R9=c-propyl; n=2] |  |  |  |  | 2.02 µM |
| CCCCCCCc1cn(CCNc2ncc(-c3ccc(Br)cc3)[nH]2)nn1 [R3=4-BrPh; R4=H; R9=heptyl; n=2] |  |  |  |  | 189 µM |
| Cc1ccc(-c2cn(CCNc3ncc(-c4ccc(Br)cc4)[nH]3)nn2)cc1 [R3=4-BrPh; R4=H; R9=p-MePh; n=2] |  |  |  |  | > 800 µM |
| CCCCCc1ccc(-c2cn(CCCNc3ncc(-c4ccc(Br)cc4)[nH]3)nn2)cc1 [R3=4-BrPh; R4=H; R9=p-PenPh; n=3] |  |  |  |  | > 800 µM |
| COc1ccc(-c2cn(CCNc3ncc(-c4ccc(Br)cc4)[nH]3)nn2)cc1 [R3=4-BrPh; R4=H; R9=pMeOPh; n=2] |  |  |  |  | 91.2 µM |
| CCCc1cn(CCNc2ncc(-c3ccc(Br)cc3)[nH]2)nn1 [R3=4-BrPh; R4=H; R9=propyl; n=2] |  |  |  |  | 25.3 µM |
| CCCc1cn(CCCNc2ncc(-c3ccc(Br)cc3)[nH]2)nn1 [R3=4-BrPh; R4=H; R9=propyl; n=3] |  |  |  |  | 35.3 µM |
| Fc1ccc(-c2cnc(NCCn3cc(C4CCCC4)nn3)[nH]2)cc1 [R3=4-FPh; R4=H; R9=c-pentyl; n=2] |  |  |  |  | 128 µM |
| Fc1ccc(-c2cnc(NCCn3cc(C4CC4)nn3)[nH]2)cc1 [R3=4-FPh; R4=H; R9=c-propyl; n=2] |  |  |  |  | 93.3 µM |
| CC(C)(C)c1cn(CCNc2ncc(C(c3ccccc3)c3ccccc3)[nH]2)nn1 [R3=CHPh2; R4=H; R9=t-Butyl; n=2] |  |  |  |  | 30.9 µM |
| c1ccc(-c2cn(CCNc3ncc(-c4ccccc4)[nH]3)nn2)cc1 [R3=Ph; R4=H; R9=Phenyl; n=2] |  |  |  |  | 36.5 µM |
| c1ccc(-c2cn(CCCNc3ncc(-c4ccccc4)[nH]3)nn2)cc1 [R3=Ph; R4=H; R9=phenyl; n=3] |  |  |  |  | 40 µM |
| CCCCCc1cn(CCNc2nc(-c3ccc(C)cc3)c(-c3ccc(Cl)cc3)[nH]2)nn1 [R3=p-ClPh; R4=p-MePh; R9=Pentyl; n=2] |  |  |  |  | 371 µM |
| Cc1ccc(-c2nc(NCCn3cc(C4CCCC4)nn3)[nH]c2-c2ccc(Cl)cc2)cc1 [R3=p-ClPh; R4=p-MePh; R9=c-Pentyl; n=2] |  |  |  |  | 6.5 µM |
